Data as given in US9765063B2, “Amido compounds as RORγt modulators and uses thereof” (New York University, priority 2011, dated 2017).
Where two headings read alike, the source gives them in different places.

Columns and labels:
RORγt = target: T1, RORγt (Mus musculus, UniProt P51450); test: RORγt S2 cell reporter assay (Gal4-RORγt fusion, UAS-luciferase); assay type: cell-based; settings: for IC50: Drosophila S2 cells, luciferase reporter, read-out: IC50; for Emax: % of the maximal response of control inhibitor (Digoxin), set at 100%, read-out: Efficacy (%)
T1 construct: expressed in transfected cells; the other entry of the earlier key: GAL4 (P04386, Regulatory protein GAL4)
Description: Methods: The Drosophila S2 cell line was originally purchased from Invitrogen and was maintained in Schneider's medium supplemented with 10% heat-inactivated bovine fetal calf serum and antibiotics (Invitrogen). […] The resulting chimeric gene was subcloned into the copper inducible pMT/V5-His A vector (available from Invitrogen).
Renilla luciferase construct under the polIII promoter was obtained from Dr. Dasgupta's laboratory (NYU medical center). In order to generate stable cell lines, cells were co-transfected with pMT-G4DBD-RORγt, pMT-G4DBD-RORα, pMT-G4DBD-DHR3, or pMT-G4DBDVP16 and pHygro plasmids (Invitrogen) and screened for resistant colonies in the presence of hygromycin (0.3 mg/mL). […] Using similar methods, stable clones with genomic integration of the luciferase reporters and other reporters were generated such as pMT-RORα_luc, pMT-DHR3_luc, or pMT-VP16_luc.
Methods: 600 G4DBD-RORγ/γt-luc reporter (#25) or G4DBD-VP16-luc reporter cells were distributed into each well of 1,536-well white bottom plates in 4 μl S2 cell culture volume containing hygromicin (300 μg/ml) and puromycin (2 μg/ml). […] After one-hour incubation, 1 of culture medium solution containing copper sulfate (to final 0.7 mM) and 10 μM RORγ/γt antagonists were added to each well. After 20-hour incubation at ambient temperature, 1.5 μl firefly luciferase detection mix was added and the luciferase activities were measured in 10 min. ViewLux luminometers were used for measuring luciferase signal.
A cell-based reporter assay was used to detect RORγt-mediated activity. This assay, called RORγt employed Drosophila Schneider cells that were stably transfected with two vectors: a gene expressing a fusion of the Gal4 DNA binding domain and RORγt transactivation domain under the control of the metallothionine promoter and a Photinus luciferase reporter regulated by the Gal4 binding site enhancer, UAS. […] Cells (600/well) were dispensed into white solid 1536-well plates (Greiner) using a solenoid-based dispenser. Following transfer of […] compound or DMSO vehicle by a pin tool, the plates were incubated 1 hr at ambient temperature, and 1 uL/well copper sulfate (700 uM final concentration) was added. The plates were centrifuged 15 s at 1000 RPM and incubated 20 hr at ambient temperature. After addition of 1.5 uL Photinus luciferase detection reagent, the plates were incubated 10 min at ambient temperature and then read by a ViewLux (Perkin Elmer) to detect luminescence. […] Efficacy is expressed as % of the maximal response of control inhibitor (Digoxin), set at 100%.

[1] = Half-life in Human Liver Microsomes (HLM); assay type: in vitro ADME; settings: for % Remaining @ 60 min / half-life at 1 μM / microsomal CLint at 1 μM: 1 μM compound, 0.78 mg/mL HLM, 37° C.; for half-life at 1 μM / microsomal CLint at 1 μM: human, human liver microsomes, pH 7.4; for half-life at 1 μM: Half-life=ln 2/k; for microsomal CLint at 1 μM: read-out: CLint (uM/Min/mg proteins)
Protocol: Test compounds (1 μM) are incubated with 3.3 mM MgCl2 and 0.78 mg/mL HLM (HL101) in 100 mM potassium phosphate buffer (pH 7.4) at 37° C. on the 96-deep well plate. The reaction mixture is split into two groups, a non-P450 and a P450 group. NADPH is only added to the reaction mixture of the P450 group. An aliquot of samples of the P450 group is collected at 0, 10, 30, and 60 min time points, where the 0 min time point indicated the lime at which NADPH is added into the reaction mixture of the P450 group. […] Collected aliquots are extracted with acetonitrile solution containing an internal standard. […] The compound concentration in supernatant is measured by LC/MS/MS system.
The half-life value is obtained by plotting the natural logarithm of the peak area ratio of compounds/internal standard versus time. The slope of the line of best fit through the points yields the rate of metabolism (k). This is converted to a half-life value using following equations: Half-life=ln 2/k

T1 sequence (P51450 with tags, fused parts or gaps): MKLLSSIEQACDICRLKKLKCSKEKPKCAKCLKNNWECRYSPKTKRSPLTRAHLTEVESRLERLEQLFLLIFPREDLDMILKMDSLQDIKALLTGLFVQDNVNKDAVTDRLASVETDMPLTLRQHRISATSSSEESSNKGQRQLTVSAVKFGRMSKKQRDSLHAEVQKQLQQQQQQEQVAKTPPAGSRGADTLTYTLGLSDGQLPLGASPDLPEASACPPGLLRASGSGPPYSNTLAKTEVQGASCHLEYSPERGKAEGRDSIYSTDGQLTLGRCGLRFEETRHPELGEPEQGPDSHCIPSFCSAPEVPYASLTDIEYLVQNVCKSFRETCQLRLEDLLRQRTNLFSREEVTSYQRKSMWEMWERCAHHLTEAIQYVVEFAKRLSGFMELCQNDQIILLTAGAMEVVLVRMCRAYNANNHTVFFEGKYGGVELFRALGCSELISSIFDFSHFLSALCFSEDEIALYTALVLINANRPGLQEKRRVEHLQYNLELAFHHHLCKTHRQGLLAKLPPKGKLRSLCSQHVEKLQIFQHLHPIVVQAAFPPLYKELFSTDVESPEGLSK

Structure (SMILES) | Emax (RORγt; Table 1) [%] | IC50 (RORγt; Table 1) [nM] | further results
COc1cc(O)c(C(CC(=O)N2CC(C)C[C@@H](C)C2)c2nc3ccccc3s2)c(OC)c1 (stereo in doubt) [Compound 205, 1-(3,5-Dimethylpiperidin-1-yl)-3-(4,6-dimethoxy-2-hydroxy-phenyl)-3-(benzothiazol-2-yl)propan-1-one] |  |  | IC50 (RORγt; Table 1A): < 1000 nM
COc1cc(O)c(C(CC(=O)N2CCCC(C)C2)c2cccs2)c(OC)c1 (stereo not drawn) [Compound 70] | 95 | 1000 to 10000 | 
COc1cc(O)c(C(CC(=O)N2CC(C)CC(C)C2)c2csc3ccccc23)c(OC)c1 (stereo not drawn) [Compound 79] | -90.8 | 1000 to 10000 | 
COc1cc(O)c(C(CC(=O)N2CC(C)CC(C)C2)c2cccc(S(C)(=O)=O)c2)c(OC)c1 (stereo not drawn) [Compound 83, 1-(3,5-Dimethylpiperidin-1-yl)-3-(2-hydroxy-4,6-dimethoxyphenyl)-3-(3-(methylsulfonyl)phenyl)propan-1-one] | 93.8 | 1000 to 10000 | 
COc1cc(O)c(C(CC(=O)N2CC(C)CC(C)C2)c2ccc(S(=O)(=O)N(C)C)cc2)c(OC)c1 (stereo not drawn) [Compound 84] | 103 | 11000 to 50000 | 
COc1cc(O)c(C(CC(=O)N2CC(C)CC(C)C2)c2ccc(C(=O)NC3CC3)cc2)c(OC)c1 (stereo not drawn) [Compound 95] |  | 1000 to 10000 | 
COc1cc(O)c(C(CC(=O)N2CC(C)CC(C)C2)c2ccc(C(C)=O)cc2)c(OC)c1 (stereo not drawn) [Compound 100, 3-(4-Acetylphenyl)-1-(3,5-dimethylpiperidin-1-yl)-3-(2-hydroxy-4,6-dimethoxyphenyl)propan-1-one] | 93.6 | < 1000 | 
COc1cc(O)c(C(CC(=O)N2CC(C)CC(C)C2)c2cccnc2)c(OC)c1 (stereo not drawn) [Compound 106, 1-(3,5-Dimethylpiperidin-1-yl)-3-(2-hydroxy-4,6-dimethoxyphenyl)-3-(pyridin-3-yl)propan-1-one] | 96.9 | 1000 to 10000 | 
COc1cc(O)c(C(CC(=O)N2CC(C)CC(C)C2)c2cccs2)c(OC)c1 (stereo not drawn) [Compound 107, 1-(3,5-Dimethylpiperidin-1-yl)-3-(2-hydroxy-4,6-dimethoxyphenyl)-3-(thiophen-2-yl)propan-1-one] | 94.9 | 1000 to 10000 | 
COc1cc(O)c(C(CC(=O)N2CC(C)CC(C)C2)c2ccncc2)c(OC)c1 (stereo not drawn) [Compound 108, 1-(3,5-Dimethylpiperidin-1-yl)-3-(2-hydroxy-4,6-dimethoxyphenyl)-3-(pyridin-4-yl)propan-1-one] | 119 | 11000 to 50000 | 
CC1CC(C)CN(C(=O)CC(c2ccc(-n3cncn3)cc2)c2ccc3c(c2)OCO3)C1 (stereo not drawn) [Compound 141, 3-(4-(1H-1,2,4-Triazol-1-yl)phenyl)-3-(benzo[d][1,3]dioxol-5-yl)-1-(3,5-dimethylpiperidin-1-yl)propan-1-one] |  |  | % Remaining @ 60 min [1]: 9.02%; stability compared with compounds 150 and 157 ([1]; HLM, Table 3 data): better or improved stability over the compounds with IDs 150 and 157; half-life at 1 μM [1]: 12.9 min; microsomal CLint at 1 μM [1]: 108 µL/min/mg
COc1cc(OC)c(C(c2ccccc2)C(C)(C)C(=O)N2CC(C)OC(C)C2)c(OC)c1 (stereo not drawn) [Compound 150, reference compound] |  |  | % Remaining @ 60 min [1]: 6.79%; half-life at 1 μM [1]: 8 min; microsomal CLint at 1 μM [1]: 173 µL/min/mg
COc1ccc2ccccc2c1C(c1ccc(F)cc1)C(C)(C)C(=O)N1CC(C)CC(C)C1 (stereo not drawn) [Compound 157, reference compound] |  |  | % Remaining @ 60 min [1]: 6.78%; half-life at 1 μM [1]: 6.9 min; microsomal CLint at 1 μM [1]: 201 µL/min/mg
COc1cc(O)c(C(CC(=O)N2C[C@H](C)C[C@H](C)C2)c2ccc(C(=O)O)cc2)c(OC)c1 (stereo partly drawn) [Compound 202, 4-(3-(3,5-cis-Dimethylpiperidin-1-yl)-1-(2-hydroxy-4,6-dimethoxyphenyl)-3-oxopropyl)benzoic acid] |  |  | IC50 (RORγt; Table 1A): < 1000 nM
COc1cc(O)c(C(CC(=O)N2C[C@H](C)C[C@H](C)C2)c2c[nH]c(C)n2)c(OC)c1 (stereo partly drawn) [Compound 203] |  |  | IC50 (RORγt; Table 1A): 1000 to 10000 nM
COc1cc(O)c(C(CC(=O)N2C[C@H](C)C[C@H](C)C2)c2cnccn2)c(OC)c1 (stereo partly drawn) [Compound 204, 1-(3,5-Dimethylpiperidin-1-yl)-3-(4,6-dimethoxy-2-hydroxy-phenyl)-3-(pyrazin-2-yl)propan-1-one] |  |  | IC50 (RORγt; Table 1A): 1000 to 10000 nM
COc1cc(O)c(C(CC(=O)N2C[C@H](C)C[C@H](C)C2)c2ccc(OC)nc2)c(OC)c1 (stereo partly drawn) [Compound 206, 1-(3,5-Dimethylpiperidin-1-yl)-3-(4,6-dimethoxy-2-hydroxy-phenyl)-3-(2-methoxypyrid-5-yl)propan-1-one] |  |  | IC50 (RORγt; Table 1A): < 1000 nM

Second part, led by results:

Emax (RORγt; Table 1) [%] | IC50 (RORγt; Table 1) [nM] | Structure (SMILES) | further results
96.7 | 1000 to 10000 | COc1cc(O)c(C(CC(=O)N2CC(C)CC(C)C2)c2ccc(C(N)=O)cc2)c(OC)c1 (stereo not drawn) [Compound 111] | 
94.5 | 1000 to 10000 | COc1c(C(CC(=O)N2CC(C)CC(C)C2)c2ccc3c(c2)OCO3)c(O)cc2occc12 (stereo not drawn) [Compound 139] | 
 | 1000 to 10000 | CC1CC(C)CN(C(=O)CC(c2ccc3c(c2)OCO3)c2c(O)ccc3cccnc23)C1 (stereo not drawn) [Compound 146] | 
87 | < 1000 | COc1cc(OC)c(C(CC(=O)N2C[C@H](C)C[C@H](C)C2)c2ccc(C(=O)O)cc2)c(OC)c1 (stereo partly drawn) [Compound 201, 4-(3-(3,5-cis-Dimethylpiperidin-1-yl)-3-oxo-1-(2,4,6-trimethoxyphenyl)-propyl)benzoic acid] | 
